# Assay results as given in patent publication US20260297060A1, “COMPOUNDS FOR THE DEGRADATION OF MUTANT BRAF” (C4 THERAPEUTICS, INC., priority 2023, published 2026).
# Where two headings read alike, the source gives them in different places.
# Columns and labels:
# [1] = target: T1, BRAF V600E (Homo sapiens, UniProt P15056+Q96SW2, V600E); test: BRAF V600E HiBiT Degradation Assay; format: cell-based
# T1 construct: knock-in of the HiBiT tag to the endogenous BRAF V600E locus; host or cells: A375.10 (A375 clonal line, CRISPR HiBiT knock-in at the endogenous BRAF V600E locus)
# T1 sequence (P15056 whole entry V600E): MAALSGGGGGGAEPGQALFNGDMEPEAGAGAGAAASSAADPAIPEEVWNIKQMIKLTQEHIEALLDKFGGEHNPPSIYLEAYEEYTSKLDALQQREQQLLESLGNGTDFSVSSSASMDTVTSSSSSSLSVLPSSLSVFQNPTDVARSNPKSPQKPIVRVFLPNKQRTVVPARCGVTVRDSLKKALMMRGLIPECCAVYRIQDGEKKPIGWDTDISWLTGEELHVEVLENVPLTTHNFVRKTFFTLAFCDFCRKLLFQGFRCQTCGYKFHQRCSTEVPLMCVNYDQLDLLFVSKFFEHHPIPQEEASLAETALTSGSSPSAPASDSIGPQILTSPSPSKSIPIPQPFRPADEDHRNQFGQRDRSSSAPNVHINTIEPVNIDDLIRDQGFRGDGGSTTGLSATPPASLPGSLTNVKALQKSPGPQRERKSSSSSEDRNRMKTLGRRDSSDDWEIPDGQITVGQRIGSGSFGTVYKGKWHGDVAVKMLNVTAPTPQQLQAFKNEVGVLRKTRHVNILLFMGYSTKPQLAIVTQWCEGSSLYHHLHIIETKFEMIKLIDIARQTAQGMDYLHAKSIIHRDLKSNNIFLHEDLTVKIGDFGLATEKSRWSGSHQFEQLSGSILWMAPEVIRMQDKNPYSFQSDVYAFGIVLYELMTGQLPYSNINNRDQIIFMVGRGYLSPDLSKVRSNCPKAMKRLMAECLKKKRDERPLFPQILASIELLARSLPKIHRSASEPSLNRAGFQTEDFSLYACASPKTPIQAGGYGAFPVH
# T1 sequence (Q96SW2 whole entry): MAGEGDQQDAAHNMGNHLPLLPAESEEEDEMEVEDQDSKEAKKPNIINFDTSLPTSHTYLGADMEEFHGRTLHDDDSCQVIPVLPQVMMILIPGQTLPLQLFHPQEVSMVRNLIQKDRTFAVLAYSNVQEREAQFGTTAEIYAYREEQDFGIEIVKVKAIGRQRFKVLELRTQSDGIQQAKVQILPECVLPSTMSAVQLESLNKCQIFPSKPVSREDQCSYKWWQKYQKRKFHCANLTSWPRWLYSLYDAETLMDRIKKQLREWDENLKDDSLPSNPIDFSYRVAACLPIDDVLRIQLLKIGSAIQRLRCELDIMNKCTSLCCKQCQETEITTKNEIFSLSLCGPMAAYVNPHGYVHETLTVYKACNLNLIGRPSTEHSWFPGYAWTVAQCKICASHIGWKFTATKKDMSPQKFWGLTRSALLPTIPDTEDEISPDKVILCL
# T1 sequence (Q16531 whole entry partner): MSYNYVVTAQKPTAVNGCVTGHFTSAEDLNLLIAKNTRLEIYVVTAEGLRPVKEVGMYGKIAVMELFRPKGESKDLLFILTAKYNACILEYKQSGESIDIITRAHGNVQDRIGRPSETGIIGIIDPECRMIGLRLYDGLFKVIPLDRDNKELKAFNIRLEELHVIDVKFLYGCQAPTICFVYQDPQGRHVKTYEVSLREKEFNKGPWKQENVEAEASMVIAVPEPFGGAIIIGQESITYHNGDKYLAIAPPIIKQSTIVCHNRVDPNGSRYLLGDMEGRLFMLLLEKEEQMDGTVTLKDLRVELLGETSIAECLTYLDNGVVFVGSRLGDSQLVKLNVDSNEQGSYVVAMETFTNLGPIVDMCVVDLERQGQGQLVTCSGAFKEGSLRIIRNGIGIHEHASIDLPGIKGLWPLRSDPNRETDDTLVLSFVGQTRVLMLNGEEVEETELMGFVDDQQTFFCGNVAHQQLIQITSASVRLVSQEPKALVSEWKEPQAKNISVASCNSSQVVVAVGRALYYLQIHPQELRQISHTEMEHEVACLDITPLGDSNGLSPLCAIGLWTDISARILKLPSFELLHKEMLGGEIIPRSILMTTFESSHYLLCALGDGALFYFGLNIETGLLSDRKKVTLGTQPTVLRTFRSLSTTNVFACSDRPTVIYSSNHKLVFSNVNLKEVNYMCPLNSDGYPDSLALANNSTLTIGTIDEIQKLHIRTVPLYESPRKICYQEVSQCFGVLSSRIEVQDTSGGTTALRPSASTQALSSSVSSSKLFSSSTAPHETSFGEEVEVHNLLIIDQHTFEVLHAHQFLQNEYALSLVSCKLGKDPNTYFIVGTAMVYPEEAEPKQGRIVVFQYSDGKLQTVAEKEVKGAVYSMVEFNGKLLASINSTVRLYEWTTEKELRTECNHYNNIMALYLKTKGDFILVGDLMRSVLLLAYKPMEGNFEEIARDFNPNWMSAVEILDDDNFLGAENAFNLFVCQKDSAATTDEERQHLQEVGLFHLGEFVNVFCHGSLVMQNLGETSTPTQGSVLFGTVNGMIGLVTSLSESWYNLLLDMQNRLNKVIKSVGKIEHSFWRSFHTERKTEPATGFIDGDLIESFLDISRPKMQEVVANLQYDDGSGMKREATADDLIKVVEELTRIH
# Protocol: Compounds of this invention were tested for degradation of mutant BRAF V600E using the HiBiT assay, a luminescence-based assay for quantification of cellular protein levels using the Nano-Glo® HiBiT Lytic Detection System (Catalog No. N3050, Promega, Madison, WI USA). This assay utilizes the HiBiT tag on a protein of interest, which creates a luminescent signal in the presence of a complementing peptide and its substrate, the quantification of which is proportional to the amount of HiBiT-tagged protein in the cell.
# The cell line A375, which is homozygous for the BRAF V600E mutation, was purchased from ATCC (Catalog No. CRL-1619, Manassas, VA, USA). A375 cells were engineered to express HiBiT tagged BRAF V600E by CRISPR knock-in of the HiBiT tag to the endogenous BRAF V600E locus, followed by selection of a clonal population containing the appropriate knock-in (referred to here as cell line A375.10). A375.10 cells were maintained at 37° C. in an atmosphere of 5% CO2 in Dulbecco's modified Eagle Medium (DMEM) with high glucose (Catalog No. 11965092), supplemented with 10% fetal bovine serum (FBS; Catalog No. 10437036), and 10 mM HEPES (Catalog No. 15630130), all obtained from Thermofisher Scientific (Waltham, MA, USA). Cell culture flasks and 384-well microplates were acquired from VWR (Radnor, PA, USA).
# Test compounds were prepared by dissolving neat compounds in DMSO (Catalog No. D8418, Sigma-Aldrich, Inc., St. Louis, MO, USA) to generate 10 mM stock solutions, which were serially diluted (half log) in DMSO to generate an 11-point dose series (1000× final treatment concentration) in a 384-Well Low Dead Volume Microplate (Catalog No. LP-0200, Labcyte, San Jose, CA, USA). Using the Echo 550 Acoustic Liquid Handler (Labcyte), 30 nL of serially diluted compound solutions were dispensed in duplicate to 384-well TC-treated microplates (Catalog No. 3571, Corning, Glendale, CA, USA) and 30 nL of DMSO was dispensed to control wells. A375.10 cells resuspended in growth media without phenol red (Catalog No. 21063-029, Thermofisher Scientific) were then added to 384-well plates containing the 11-point dose series of compounds in duplicate (maximum 10 μM concentration for final treatment) at a density of 12,000 cells/well in 30 μl. Plates were then spun briefly, and cells were incubated with compound at 37° C. for 2 hours, 6 hours, or 24 hours.
# Following the appropriate treatment time, Nano-Glo® HiBiT Lytic Assay reagents were added to the cells per the manufacturer's instructions by adding 30 μl of reagent per well, and the luminescence signal was acquired by plate reader. Cells treated with DMSO only (no test compound treatment) were used as the negative control (N). Media only (no cells added) with Nano-Glo reagent addition was used as the background or positive control (P). The percent response of compound treated samples were calculated by subtracting out the background signal (P) and normalizing to the DMSO control (N) as follows.
# % Response=100×(Treated Signal−Average (P))/(Average (N)−Average (P)).
# Data were analyzed with a 4-parameter logistic fit to generate sigmoidal dose-response curves. The DC50 is the concentration of compound at which 50% of the cellular BRAF V600E has been degraded. The Emax, or maximum effect of each compound, represents the amount of residual protein remaining in the cell following compound treatment. The IP, or inflection point of the dose-response curve, is the concentration of compound at which 50% of the observed degradation response is achieved.
# The experiment was conducted at least once for each compound. If the experiment was conducted multiple times, the data shown in the table is the average of the two or more experiments.
# [2] = test system: A375-NRAS^Q61K cells; test: CTGlo Cell Viability Assay, A375-NRAS^Q61K (A375.11) cells, 96 hours; format: cell-based, human; conditions: A375.11 (A375-NRAS^Q61K) cells
# Protocol: Compounds of this invention were tested for their effect on the viability of A375-NRAS^Q61K cells by quantification of ATP using the CellTiter-Glo® 2.0 Cell Viability Assay (Catalog No. G9243, Promega, Madison, WI, USA). This assay produces a luminescent signal in the presence of ATP, which is indicative of metabolically active cells, making the luminescence readout proportional to the number of viable cells.
# A375-NRAS^Q61K cells (harboring BRAF homozygous V600E mutation and NRAS homozygous Q61K mutation) were purchased from ATCC (Catalog No. CRL-1619IG-2, Manassas, VA, USA). A375-NRAS^Q61K cells (also referred to here as A375.11) were maintained at 37° C. in an atmosphere of 5% CO2 in Dulbecco's modified Eagle Medium (DMEM) with high glucose (Catalog No. 11965092), supplemented with 10% fetal bovine serum (FBS; Catalog No. 10437036), and 10 mM HEPES (Catalog No. 15630130), all obtained from Thermofisher Scientific (Waltham, MA, USA). Cell culture flasks and 384-well microplates were acquired from VWR (Radnor, PA, USA).
# Test compounds were prepared by dissolving neat compounds in DMSO (Catalog No. D8418, Sigma-Aldrich, Inc., St. Louis, MO, USA) to generate 10 mM stock solutions, which were serially diluted (half log) in DMSO to generate an 11-point dose series (1000× final treatment concentration) in a 384-Well Low Dead Volume Microplate (Catalog No. LP-0200, Labcyte, San Jose, CA, USA). Using the Echo 550 Acoustic Liquid Handler (Labcyte), 50 nL of serially diluted compound solutions were dispensed in duplicate to 384-well TC-treated microplates (Catalog No. 3571, Corning, Glendale, CA, USA) and 50 nL of DMSO was dispensed to control wells. A375-NRAS^Q61K cells were resuspended in growth media and added to 384-well plates containing a […] of compounds in duplicate (maximum 10 μM concentration for final treatment) at a density of 250 cells/well in 50 μl. Cells were also plated to a 384-well plate with no compound treatment, to which CellTiter-Glo® reagent was added and luminescence was read right after plating to act as a baseline signal at time of plating (To). Plates treated with compound were then spun briefly, and cells were incubated with compound at 37° C. for 96 hours.
# After 96 hours compound treatment, CellTiter-Glo® reagent was added to the cells at 25 μl per well and luminescence was read out on the PHERAstar plate reader (BMG Labtech, Ortenberg, Germany). Cells treated with DMSO only (no test compound treatment) were used as the negative control (N). DMSO treated cells with no CellTiter-Glo® reagent added were used as the background or positive control (P). Viability was determined by subtracting out the average background signal (P) and normalized to the average untreated signal (N) set at 100%.
# Data were analyzed with a 4-parameter logistic fit to generate sigmoidal dose-response curves. The half-maximal inhibition of cell growth (GI50) is the concentration at which the fitted curve crosses 50%. The Emax, or maximum effect of each compound, represents the lowest % viability achieved following compound treatment.
# [3] = A375.10 cells, BRAF V600E, 2 hours, inflection point, read-out: HiBiT-Degradation A375.10 BRAF 2 hours IP
# [4] = A375.10 cells, BRAF V600E, 2 hours, read-out: HiBiT-Degradation A375.10 BRAF 2 hours DC50
# [5] = A375.10 cells, BRAF V600E, 2 hours, residual protein remaining
# [6] = A375.10 cells, BRAF V600E, 6 hours, inflection point, read-out: HiBiT-Degradation A375.10 BRAF 6 hours IP
# [7] = A375.10 cells, BRAF V600E, 6 hours, read-out: HiBiT-Degradation A375.10 BRAF 6 hours DC50
# [8] = A375.10 cells, BRAF V600E, 6 hours, residual protein remaining
# [9] = A375.10 cells, HiBiT, BRAF V600E, 24 hours
# [10] = A375.10 cells, HiBiT, BRAF V600E, 24 hours, read-out: HiBiT-Degradation A375.10 BRAF 24 hours DC50
# [11] = A375.10 cells, HiBiT, BRAF V600E, 24 hours, read-out: HiBiT-Degradation A375.10 BRAF 24 hours IP
SMILES,"DC50 [1, 3] [nM]","DC50 [1, 4] [nM]","HiBiT-Degradation A375.10 BRAF 2 hours Emax [1, 5]","DC50 [1, 6] [nM]","DC50 [1, 7] [nM]","HiBiT-Degradation A375.10 BRAF 6 hours Emax [1, 8]","HiBiT-Degradation A375.10 BRAF 24 hours Emax [1, 9]","DC50 [1, 10] [nM]","DC50 [1, 11] [nM]",GI50 [2] [nM],CTGlo A375.11 96 hours Emax ([2]; lowest % viability achieved),HiBiT-Degradation A375.10 BRAF 2 hours Emax [1],"Emax ([1]; A375.10 cells, BRAF V600E, 2 hours, residual protein remaining, read-out: HiBiT-Degradation A375.10 BRAF 2 hours Emax) [%]","Emax ([2]; Homo sapiens, 96 h, lowest % viability achieved) [%]","Emax ([1]; A375.10 cells, BRAF V600E, 6 hours, residual protein remaining, read-out: HiBiT-Degradation A375.10 BRAF 6 hours Emax) [%]","Emax ([1]; A375.10 cells, HiBiT, BRAF V600E, 24 hours, read-out: HiBiT-Degradation A375.10 BRAF 24 hours Emax) [%]"
"CCN(C)S(=O)(=O)Nc1ccc(F)c(Oc2ccc3ncn([C@H]4COC5(CCN(C6CCC(c7cc8c(cc7F)c(N7CCC(=O)NC7=O)nn8C)CC6O)CC5)C4)c(=O)c3c2)c1C#N (single isomer, unassigned) [Compound 45]",< 1000,< 1000,*** (<=50%),< 1000,< 1000,*** (<=50%),*** (<=50%),< 1000,< 1000,< 1000,*** (<=50%),–,–,–,–,–
"CCN(C)S(=O)(=O)Nc1ccc(F)c(Oc2ccc3ncn([C@@H]4COC5(CCN(C6CCC(c7cc8c(cc7F)c(N7CCC(=O)NC7=O)nn8C)CC6)CC5)C4)c(=O)c3c2F)c1C#N (single isomer, unassigned) [Compound 47]",< 1000,< 1000,–,< 1000,< 1000,*** (<=50%),*** (<=50%),< 1000,< 1000,1000 to 10000,** (<90% and >50%),*** (<=50%),–,–,–,–
"CCN(C)S(=O)(=O)Nc1ccc(F)c(Oc2ccc3ncn([C@H]4COC5(CCN(C6CCC(c7ccc(NC8CCC(=O)NC8=O)cc7F)CC6)CC5)C4)c(=O)c3c2F)c1C#N (single isomer, unassigned) [Compound 51]",< 1000,< 1000,** (<90% and >50%),–,–,–,–,–,–,1000 to 10000,*** (<=50%),–,–,–,–,–
"CCN(C)S(=O)(=O)Nc1ccc(F)c(Oc2ccc3ncn([C@@H]4COC5(CCN(C6CCC(c7ccc(NC8CCC(=O)NC8=O)cc7F)CC6)CC5)C4)c(=O)c3c2F)c1C#N (single isomer, unassigned) [Compound 53]",< 1000,< 1000,*** (<=50%),–,–,–,–,–,–,1000 to 10000,** (<90% and >50%),–,–,–,–,–
"CCN(C)S(=O)(=O)Nc1ccc(F)c(Nc2ccc3ncn([C@H]4COC5(CCN(C6CCC(c7ccc(NC8CCC(=O)NC8=O)cc7F)CC6)CC5)C4)c(=O)c3c2)c1C#N (single isomer, unassigned) [Compound 56]",< 1000,< 1000,–,–,–,–,–,–,–,> 10000,–,–,< 50,50 to 90,–,–
"CCN(C)S(=O)(=O)Nc1ccc(F)c(Nc2ccc3ncn([C@H]4COC5(CCN(C6CCC(c7ccc(NC8CCC(=O)NC8=O)cc7F)CC6)CC5)C4)c(=O)c3c2)c1C#N (single isomer, unassigned) [Compound 57]",< 1000,< 1000,*** (<=50%),< 1000,< 1000,–,–,< 1000,< 1000,1000 to 10000,** (<90% and >50%),–,–,–,< 50,< 50
"CCN(C)S(=O)(=O)Nc1ccc(F)c(Oc2ccc3ncc([C@H]4COC5(CCN(C6CCC(c7ccc(NC8CCC(=O)NC8=O)cc7F)CC6)CC5)C4)nc3c2)c1C#N (single isomer, unassigned) [Compound 59]",< 1000,< 1000,–,–,–,–,–,–,–,1000 to 10000,** (<90% and >50%),** (<90% and >50%),–,–,–,–
